# Patent publication US20260356817A1, “AMINOPYRIMIDINE AND AMINOTRIAZINE DERIVATIVES AS MYC PROTEIN MODULATORS” (Sanford Burnham Prebys Medical Discovery Institute, priority 2022, published 2026)
# Like-named read-outs stand apart in the source and are kept apart here.
# Tested on: Myc
# Experiment: Myc inhibition assay: Myc expression per cell by anti-Myc immunofluorescence, high-content imaging
# Format: cell-based, human (patient-derived medulloblastoma xenograft cells)
# Details: medulloblastoma PDX cells, 4 h
# From the text: To identify Myc inhibitors, cells isolated from patient-derived orthotopic xenografts (PDXs) from patients with Myc-driven medulloblastoma were used. Specifically, PDX cells were propagated by transplantation directly into the cerebellum of immunodeficient (NSG) mice and were never passaged in vitro in order to maintain properties of the tumor from which they were derived. Tumor tissues were isolated from tumor-bearing animals, dissociated into a single-cell suspension, resuspended in serum-free media, and immediately plated in 384 well plates. After overnight recovery, compounds were added to each well, and cells were incubated for 4 hours before being fixed and stained with anti-Myc antibodies and with DAPI to label nuclei. Cells were then analyzed using high-content imaging to determine the levels of Myc expression per cell and IC50 values of the compounds.
# [1] = Table 1, read-out: IC50 (Myc inhibition)
# [2] = Table 2, read-out: MYC Inhibition IC50
SMILES,IC50 [1] [µM],IC50 [2] [µM]
"Oc1cc(-c2ccnc(Nc3ccc(F)c(F)c3)n2)ccn1 [Compound 209, 4-(2-((3,4-difluorophenyl)amino)pyrimidin-4-yl)pyridin-2-ol]",1 to 10,1 to 10
"Fc1cc2[nH]cnc2cc1-c1ccnc(Nc2cccc(C(F)(F)F)c2)n1 [Compound 126, 4-(6-fluoro-1H-benzo[d]imidazol-5-yl)-N-(3-(trifluoromethyl)phenyl)pyrimidin-2-amine]",0.2 to 1,0.2 to 1
"Oc1ccc(-c2ccnc(Nc3ccccc3)n2)cn1 [Compound 238, 5-(2-(phenylamino)pyrimidin-4-yl)pyridin-2-ol]",1 to 10,1 to 10
"Oc1cncc(-c2ccnc(Nc3cccc(C(F)(F)F)c3)n2)c1 [Compound 201, 5-(2-((3-(trifluoromethyl)phenyl)amino)pyrimidin-4-yl)pyridin-3-ol]",1 to 10,1 to 10
"CN(c1ccccc1)c1nccc(-c2ccnc(O)c2)n1 [Compound 221, 4-(2-(methyl(phenyl)amino)pyrimidin-4-yl)pyridin-2-ol]",10 to 100,10 to 100
"FC(F)(F)c1cccc(Nc2nccc(N3CCc4[nH]cnc4C3)n2)c1 [Compound 112, 4-(1,4,6,7-tetrahydro-5H-imidazo[4,5-c]pyridin-5-yl)-N-(3-(trifluoromethyl)phenyl)pyrimidin-2-amine]",1 to 10,1 to 10
"COc1cc(-c2ccnc(Nc3ncccn3)n2)ccn1 [Compound 195, 4-(2-methoxypyridin-4-yl)-N-(pyrimidin-2-yl)pyrimidin-2-amine]",10 to 100,10 to 100
"Fc1cccc(Nc2nccc(-c3ccn4nccc4n3)n2)c1 [Compound 270, N-(3-fluorophenyl)-4-(pyrazolo[1,5-a]pyrimidin-5-yl)pyrimidin-2-amine]",1 to 10,1 to 10
"FC(F)(F)c1cccc(Nc2nccc(-c3c[nH]c4cnccc34)n2)c1 [Compound 30, 4-(1H-pyrrolo[2,3-c]pyridin-3-yl)-N-(3-(trifluoromethyl)phenyl)pyrimidin-2-amine]",1 to 10,1 to 10
"CN(c1cccc(C(F)(F)F)c1)c1nccc(-c2ccnc(O)c2)n1 [Compound 220, 4-(2-(methyl (3-(trifluoromethyl)phenyl)amino)pyrimidin-4-yl)pyridin-2-ol]",10 to 100,10 to 100
"COc1cncc(-c2ccnc(Nc3cccc(C(F)(F)F)c3)n2)c1 [Compound 204, 4-(5-methoxypyridin-3-yl)-N-(3-(trifluoromethyl)phenyl)pyrimidin-2-amine]",0.2 to 1,0.2 to 1
"Oc1cc(-c2ccnc(Nc3cccnc3)n2)ccn1 [Compound 188, 4-(2-(pyridin-3-ylamino)pyrimidin-4-yl)pyridin-2-ol]",1 to 10,1 to 10
"COc1ccnc(-c2ccnc(Nc3ccccc3)n2)c1 [Compound 217, 4-(4-methoxypyridin-2-yl)-N-phenylpyrimidin-2-amine]",10 to 100,10 to 100
"Oc1cc(-c2ccnc(Nc3cncc(F)c3)n2)ccn1 [Compound 145, 4-(2-((5-fluoropyridin-3-yl)amino)pyrimidin-4-yl)pyridin-2-ol]",1 to 10,1 to 10
"COc1nccc(-c2ccnc(Nc3ccccc3)n2)n1 [Compound 163, 2′-Methoxy-N-phenyl-[4,4′-bipyrimidin]-2-amine]",10 to 100,10 to 100
"Oc1ccc(-c2ccnc(Nc3cccc(C(F)(F)F)c3)n2)cc1 [Compound 130, 4-(2-((3-(Trifluoromethyl)phenyl)amino)pyrimidin-4-yl)phenol]",0.2 to 1,0.2 to 1
"COc1cc(-c2ccnc(Nc3cccnc3)n2)ccn1 [Compound 189, 4-(2-methoxypyridin-4-yl)-N-(pyridin-3-yl)pyrimidin-2-amine]",1 to 10,1 to 10
"O=C(O)c1cccc(Nc2nccc(-c3ccnc(O)c3)n2)c1 [Compound 196, 3-((4-(2-hydroxypyridin-4-yl)pyrimidin-2-yl)amino)benzoic acid]",10 to 100,10 to 100
"COc1cc(-c2ccnc(Nc3ccccc3)n2)ncn1 [Compound 162, 6′-methoxy-N-phenyl-[4,4′-bipyrimidin]-2-amine]",10 to 100,10 to 100

# Next, values leading:
IC50 [1] [µM],IC50 [2] [µM],SMILES
< 0.2,< 0.2,"c1ccc(-n2cc(Nc3nccc(-c4ccc5[nH]cnc5c4)n3)cn2)nc1 [Compound 35, 4-(1H-benzo[d]imidazol-5-yl)-N-(1-(pyridin-2-yl)-1H-pyrazol-4-yl)pyrimidin-2-amine]"
1 to 10,1 to 10,"FC(F)(F)c1cccc(Nc2nccc(-c3ccc4scnc4c3)n2)c1 [Compound 76, 4-(benzo[d]thiazol-5-yl)-N-(3-(trifluoromethyl)phenyl)pyrimidin-2-amine]"
< 0.2,< 0.2,"NS(=O)(=O)c1cccc(Nc2nccc(-c3ccc4[nH]cnc4c3)n2)c1 [Compound 46, 3-((4-(1H-benzo[d]imidazol-5-yl)pyrimidin-2-yl)amino)benzenesulfonamide]"
1 to 10,1 to 10,"CCc1ccccc1Nc1nccc(-c2ccc3[nH]cnc3c2)n1 [Compound 80, 4-(1H-benzo[d]imidazol-5-yl)-N-(2-ethylphenyl)pyrimidin-2-amine]"
0.2 to 1,0.2 to 1,"c1cc(-c2ccc3[nH]cnc3c2)nc(Nc2ccc3cn[nH]c3c2)n1 [Compound 268, N-(4-(1H-benzo[d]imidazol-5-yl)pyrimidin-2-yl)-1H-indazol-6-amine]"
1 to 10,1 to 10,"COc1cc(-c2ccnc(Nc3cccc(C)c3)n2)ccn1 [Compound 160, 4-(2-methoxypyridin-4-yl)-N-(m-tolyl)pyrimidin-2-amine]"
10 to 100,10 to 100,"Fc1cccc(Nc2nccc(-c3ccc4[nH]ccc4c3)n2)c1 [Compound 202, N-(3-fluorophenyl)-4-(1H-indol-5-yl)pyrimidin-2-amine]"
< 0.2,< 0.2,"CC(C)c1cccc(Nc2nccc(-c3cnc4nc[nH]c4c3)n2)c1 [Compound 134, 4-(1H-imidazo[4,5-b]pyridin-6-yl)-N-(3-isopropylphenyl)pyrimidin-2-amine]"
0.2 to 1,0.2 to 1,"c1cc(-c2ccc3[nH]cnc3c2)nc(Nc2cnoc2)n1 [Compound 56, N-(4-(1H-benzo[d]imidazol-5-yl)pyrimidin-2-yl)isoxazol-4-amine]"
0.2 to 1,0.2 to 1,"NCCCOc1cccc(Nc2nccc(-c3ccc4[nH]cnc4c3)n2)c1 [Compound 91, N-(3-(3-aminopropoxy)phenyl)-4-(1H-benzo[d]imidazol-5-yl)pyrimidin-2-amine]"
< 0.2,< 0.2,"c1ccc(-n2cc(Nc3nccc(-c4ccc5[nH]cnc5c4)n3)cn2)cc1 [Compound 39, 4-(1H-benzo[d]imidazol-5-yl)-N-(1-phenyl-1H-pyrazol-4-yl)pyrimidin-2-amine]"
1 to 10,1 to 10,"Cc1cc2nc[nH]c2cc1-c1ccnc(Nc2cccc(C(F)(F)F)c2)n1 [Compound 114, 4-(5-methyl-1H-benzo[d]imidazol-6-yl)-N-(3-(trifluoromethyl)phenyl)pyrimidin-2-amine]"
< 0.2,< 0.2,"c1cc(Nc2nccc(-c3ccc4[nH]cnc4c3)n2)cc(-c2cnco2)c1 [Compound 264, 4-(1H-benzo[d]imidazol-5-yl)-N-(3-(oxazol-5-yl)phenyl)pyrimidin-2-amine]"
0.2 to 1,0.2 to 1,"CNC(=O)c1cccc(Nc2nccc(-c3ccc4[nH]cnc4c3)n2)c1 [Compound 42, 3-((4-(1H-benzo[d]imidazol-5-yl)pyrimidin-2-yl)amino)-N-methylbenzamide]"
1 to 10,1 to 10,"COc1ccccc1Nc1nccc(-c2ccc3[nH]cnc3c2)n1 [Compound 61, 4-(1H-benzo[d]imidazol-5-yl)-N-(2-methoxyphenyl)pyrimidin-2-amine]"
1 to 10,1 to 10,"FC(F)(F)c1cccc(Nc2nccc(-c3ccc4[nH]ccc4c3)n2)c1 [Compound 152, 4-(1H-indol-5-yl)-N-(3-(trifluoromethyl)phenyl)pyrimidin-2-amine]"
0.2 to 1,0.2 to 1,"CC(C)C(=O)Nc1cccc(Nc2nccc(-c3ccc4[nH]cnc4c3)n2)c1 [Compound 257, N-(3-((4-(1H-benzo[d]imidazol-5-yl)pyrimidin-2-yl)amino)phenyl)isobutyramide]"
< 0.2,< 0.2,"c1ccc(-c2cccc(Nc3nccc(-c4ccc5[nH]cnc5c4)n3)c2)nc1 [Compound 44, 4-(1H-benzo[d]imidazol-5-yl)-N-(3-(pyridin-2-yl)phenyl)pyrimidin-2-amine]"
1 to 10,1 to 10,"O=C1CNCCN1c1cccc(Nc2nccc(-c3ccc4[nH]cnc4c3)n2)c1 [Compound 63, 1-(3-((4-(1H-benzo[d]imidazol-5-yl)pyrimidin-2-yl)amino)phenyl)piperazin-2-one]"
< 0.2,< 0.2,"c1cc(Nc2nccc(-c3ccc4[nH]cnc4c3)n2)cc(-c2nnn[nH]2)c1 [Compound 267, N-(3-(1H-tetrazol-5-yl)phenyl)-4-(1H-benzo[d]imidazol-5-yl)pyrimidin-2-amine]"
1 to 10,1 to 10,"O=S(=O)(Nc1ccccc1)c1cccc(Nc2nccc(-c3ccc4[nH]cnc4c3)n2)c1 [Compound 23, 3-((4-(1H-benzo[d]imidazol-5-yl)pyrimidin-2-yl)amino)-N-phenylbenzenesulfonamide]"
0.2 to 1,0.2 to 1,"Cc1cccc(Nc2nccc(-c3ccc4[nH]cnc4c3)n2)c1 [Compound 40, 4-(1H-benzo[d]imidazol-5-yl)-N-(m-tolyl)pyrimidin-2-amine]"
